Our source for the IC50 values is patent US12606570B2, “Deuterated compounds and imaging agents for imaging huntingtin protein” (CHDI Foundation, Inc., priority 2021, dated 2026).

This assay addresses T1, Exon1-Q46 protein aggregates (MBP-HTT(1-89)Q46-His(6×)) (Homo sapiens, UniProt P42858, INS38QQQQQQQQQQQQQQQQQQQQQQQQQ).
T1 construct: MBP-HTT(1-89)Q46-His(6×); MBP (N, cleaved yes); His(6×) (C); made in house
In words: Exon1-Q46 radioligand binding assay (RBA). To be noted: displacement of 0.3 nM [3H3-methyl]-5-((5-methoxypyridin-2-yl)methoxy)-2-(pyrazin-2-yl)benzo[d]oxazole; 1 μM Exon1-Q46 aggregates; read-out: Potency Range. Here is the method: Exon1-Q46 Radioligand Binding Assay
For radioligand binding assays (RBA), MBP-HTT(1-89)Q46-His(6×) (“Exon1-Q46”) protein was generated based on a previous publication (Scherzinger et al. Cell, Vol. 90, 549-558, Aug. 8, 1997). For experiments, 30 μM MBP-Exon1-Q46 was incubated with 150 μg/mL thrombin in assay buffer (150 mM NaCl, 50 mM Tris pH 8.0) and 2 mM CaCl2 for 16 hours at 37° C. Aggregated Exon1-Q46 was pelleted by centrifugation for 5 minutes at 13,000 rpm in a bench top centrifuge and re-dissolved in the same volume of assay buffer. Test compounds were prepared by titration in DMSO at 11 concentrations from 63 μM to 2 nM. For the RBA, Exon1-Q46 protein aggregates and test compounds were pre-incubated in assay buffer for 20 minutes at room temperature, in 100 μL/well in a 96-well plate (pp, round bottom). Then, ligand was added in 50 µL/well and incubated for 60 minutes at 37° C. Final assay concentrations were […] test compound, 1 μM Exon1-Q46 protein (equivalent monomer concentration), and 0.3 nM ligand [^3H3-methyl]-5-((5-methoxypyridin-2-yl)methoxy)-2-(pyrazin-2-yl)benzo[d]oxazole. Samples were transferred onto GF/B filter plates and washed 2× with 200 μL PBS using a Filtermate Harvester. After drying filter plates for 1 hour at 55° C., the back of the plates were sealed with foil and 30 μL/well scintillation fluid (Packard MicroScint 40) added, incubated for 15 minutes in the dark, and counted in a MicroBeta reader. For analysis, replicate data from independent assay plates were normalized towards 0% and 100% inhibition using control wells of vehicle (0% inhibition) and […] unlabelled [^3H3-methyl]-5-((5-methoxypyridin-2-yl)methoxy)-2-(pyrazin-2-yl)benzo[d]oxazole (100% inhibition). IC50 values were determined with a sigmoidal inhibition model with four variables (top, bottom, slope, IC50) in a global fit using the normalized replicate data.
The results for various example compounds were as provided in the table below (+++<100 nM; ++100-500 nM; +>500 nM; ND: not determined): […]

T1 sequence (P42858 with tags, fused parts or gaps with the stated changes limits assumed): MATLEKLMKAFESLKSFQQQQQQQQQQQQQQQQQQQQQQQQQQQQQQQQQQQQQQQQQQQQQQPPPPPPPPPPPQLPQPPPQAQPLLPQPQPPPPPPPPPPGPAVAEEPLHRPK

Regarding `Cc1ccc(S(=O)(=O)OCCOc2ccc(COc3cnc4oc(-c5cc(C)ncn5)nc4c3)nc2)cc1` [Compound 1-2, 2-((6-(((2-(6-Methylpyrimidin-4-yl)oxazolo[5,4-b]pyridin-6-yl)oxy)-methyl)pyridin-3-yl)oxy)ethyl 4-methylbenzenesulfonate], the IC50 was under 100 nM.
Then `COc1cnc(COc2cnc3oc(-c4cc(C)ncn4)nc3c2)c(F)c1` [Compound 1-3, 6-((3-Fluoro-5-methoxypyridin-2-yl)methoxy)-2-(6-methylpyrimidin-4-yl)oxazolo[5,4-b]pyridine], with under 100 nM.
For `Cc1cc(-c2nc3cc(OCc4ccc(OCCF)cn4)cnc3o2)ncn1` [Compound 5-1, 6-((5-(2-Fluoroethoxy)pyridin-2-yl)methoxy)-2-(6-methylpyrimidin-4-yl) oxazolo[5,4-b]pyridine], the IC50 was under 100 nM.
Next, `COc1ccc(COc2cnc3oc(-c4ccnc(C)n4)nc3c2)nc1` [Compound 2-1]: under 100 nM.
Then `C=CCOc1ccc(COc2cnc3oc(-c4cc(C)ncn4)nc3c2)nc1` [Compound 5-2, 6-((5-(Allyloxy)pyridin-2-yl)methoxy)-2-(6-methylpyrimidin-4-yl) oxazolo[5,4-b]pyridine], with under 100 nM.
For `Cc1cc(-c2nc3cc(OCc4ccc(OCF)cn4)cnc3o2)ncn1` [Compound 5-3, 6-((5-(Fluoromethoxy)pyridin-2-yl)methoxy)-2-(6-methylpyrimidin-4-yl) oxazolo[5,4-b]pyridine], the IC50 is under 100 nM.
Regarding `COc1ccc(COc2cnc3oc(-c4cc(C)ncn4)nc3c2)nc1` [Compound 4-1, 4-{6-[(5-Methoxypyridin-2-yl)methoxy]-[1,3]oxazolo[5,4-b]pyridin-2-yl}-6-methylpyrimidine], the IC50 is under 100 nM.
Then `[2H]C([2H])(F)C([2H])([2H])Oc1ccc(COc2cnc3oc(-c4cc(C)ncn4)nc3c2)nc1` [Compound 1-1, 6-((5-(2-Fluoroethoxy-1,1,2,2-d4)pyridin-2-yl)methoxy)-2-(6-methyl-pyrimidin-4-yl)oxazolo[5,4-b]pyridine], with under 100 nM.
Then `COc1ccc(COc2cnc3oc(-c4cc(OCCF)ncn4)nc3c2)nc1` [Compound 3-1, 4-(2-Fluoroethoxy)-6-{6-[(5-methoxypyridin-2-yl)methoxy]-[1,3]oxazolo[5,4-b]pyridin-2-yl}pyrimidine], with under 100 nM.
